For experiment [1], the system named is HCV replicon, genotype 1a L31V variant with leucine 31 changed to valine in the NS5A protein. It is filed as cell-based, HCV genotype 1a. The note with it: test compound titrated in combination with a fixed 200 nM compound N47; genotype 1a L31V replicon.
Experiment [2] concerns HCV replicon, genotype 1a Y93H variant with tyrosine 93 changed to histidine in the NS5A protein. It is filed as cell-based, HCV genotype 1a. The settings on record: test compound titrated in combination with a fixed 200 nM compound N47; genotype 1a Y93H replicon. As for the experimental part: Combinations can be examined for synergistic activity using a variety of putative NS5A-targeting compounds and a variety of test compounds. […] The test compound can be chosen from compounds exemplified below, which were prepared by methods known in the art, or from others disclosed in the literature.
Similarly, BMS-790052 can be tested singly and in combination with a fixed amount of compound N47 in the HCV replicon cell based assay consisting of the genotype 1a Y93H variant with tyrosine 93 changed to histidine in the NS5A protein.
(In general: Replicon systems follow genome replication, usually without infectious particles.)

The record followed here is patent US9326973B2, “Hepatitis C virus inhibitors” (priority 2012, dated 2016).

The structures appear in SMILES notation. Bounds are passed on as bounds.

As for `O=C(Nc1ccc(/C=C/c2ccc(NC(=O)[C@@H]3CCCN3C(=O)Cc3ccccc3)cc2)cc1)C1CCCN1C(=O)Cc1ccccc1` (stereo partly shown), the “Fold-Synergistic G-1a (L31V)” value in experiment [1] was less than 10 Fold. Moreover, the “Fold-Synergistic G-1a (Y93H)” value in experiment [2] was less than 10 Fold.

Turning to `O=C(Nc1ccc(/C=C/c2ccc(NC(=O)[C@@H]3CCCN3C(=O)Cc3cccnc3)nc2)cn1)C1CCCN1C(=O)Cc1cccnc1` (stereo partly shown), the “Fold-Synergistic G-1a (L31V)” value in experiment [1] was less than 10 Fold. In addition, the “Fold-Synergistic G-1a (Y93H)” value in experiment [2] is given as less than 10 Fold.

On to `CN(C)[C@@H](C(=O)N1CCCC1c1cnc(-c2ccc3nc([C@@H]4CCCN4C(=O)[C@@H](c4ccccc4)N(C)C)[nH]c3c2)o1)c1ccccc1` (stereo partly shown), for which, in experiment [1], the “Fold-Synergistic G-1a (L31V)” value is given as less than 10 Fold. In experiment [2], the “Fold-Synergistic G-1a (Y93H)” value is reported as less than 10 Fold.

Turning to `COC(=O)N[C@@H](C(=O)N1CCC[C@H]1c1ncc(-c2ccc(-c3ccc(-c4cnc([C@@H]5CCCN5C(=O)[C@H](NC(=O)OC)c5ccccc5)[nH]4)cc3)cc2)[nH]1)c1ccccc1`, the “Fold-Synergistic G-1a (L31V)” value in experiment [1] is less than 10 Fold.

On to `CN(C)[C@@H](C(=O)N1CCCC[C@H]1c1ncc(-c2ccc(-c3ccc(-c4cnc([C@@H]5CCCCN5C(=O)[C@@H](c5ccccc5)N(C)C)[nH]4)cc3)cc2)[nH]1)c1ccccc1`, for which the “Fold-Synergistic G-1a (Y93H)” value in experiment [2] is less than 10 Fold.

For `COC(=O)N[C@H](C(=O)N1CCC[C@H]1c1nc2cc(C#Cc3ccc4[nH]c([C@@H]5CCCN5C(=O)[C@@H](NC(=O)OC)C(C)C)nc4c3)ccc2[nH]1)C(C)C`, in experiment [2], the “Fold-Synergistic G-1a (Y93H)” value is less than 10 Fold.

For `COC(=O)N[C@@H](C)C(=O)N1[C@@H]2CC[C@@H](C2)[C@H]1c1nc(-c2ccc(-c3ccc(C4=CNC([C@@H]5[C@H]6CC[C@H](C6)N5C(=O)[C@H](C)NC(=O)OC)N4)cc3)cc2)c[nH]1` (stereo partly shown), the “Fold-Synergistic G-1a (L31V)” value in experiment [1] is recorded as greater than 10 Fold. For the same molecule, the “Fold-Synergistic G-1a (Y93H)” value in experiment [2] is recorded as less than 10 Fold.

On to `COC(=O)N[C@H](C(=O)N1C[C@H](C)C[C@H]1c1ncc(-c2ccc(-c3ccc(-c4cnc([C@@H]5C[C@@H](C)CN5C(=O)[C@@H](NC(=O)OC)C(C)C)[nH]4)cc3)cc2)[nH]1)C(C)C`, for which, in experiment [1], the “Fold-Synergistic G-1a (L31V)” value was greater than 100 Fold. Moreover, the “Fold-Synergistic G-1a (Y93H)” value in experiment [2] is greater than 100 Fold.

For the molecule `COC(=O)N[C@H](C(=O)N1CCC[C@H]1C1=C(c2ccc(C#Cc3ccc4[nH]c([C@@H]5CCCN5C(=O)[C@@H](NC(=O)OC)C(C)C)nc4c3)cc2)NCN1)C(C)C`, the “Fold-Synergistic G-1a (L31V)” value in experiment [1] is less than 10 Fold. Besides, in experiment [2], the “Fold-Synergistic G-1a (Y93H)” value is recorded as greater than 10 Fold.

Consider `COC(=O)N[C@@H](C(=O)N1CCCC1c1ncc(C#CC#Cc2cnc([C@@H]3CCCN3C(=O)[C@H](NC(=O)OC)c3ccccc3)[nH]2)[nH]1)c1ccccc1` (stereo partly shown), for which the “Fold-Synergistic G-1a (L31V)” value in experiment [1] is recorded as less than 10 Fold. Besides, the “Fold-Synergistic G-1a (Y93H)” value in experiment [2] was less than 10 Fold.

As for `COC(=O)NC(C(=O)N1[C@@H]2C[C@@H]2C[C@H]1c1nc2ccc(-c3ccc4cc(-c5ccc6nc([C@@H]7C[C@H]8C[C@H]8N7C(=O)[C@@H](NC(=O)OC)C(C)C)[nH]c6c5)ccc4c3)cc2[nH]1)C(C)C` (stereo partly shown), in experiment [1], the “Fold-Synergistic G-1a (L31V)” value is recorded as greater than 10 Fold. Further, in experiment [2], the “Fold-Synergistic G-1a (Y93H)” value is given as greater than 10 Fold.

On to `COC(=O)N[C@H](C(=O)N1C(c2nc3ccc4cc(C#Cc5ccc6c(ccc7nc([C@@H]8CC9CC9N8C(=O)[C@@H](NC(=O)OC)C(C)C)[nH]c76)c5)ccc4c3[nH]2)C[C@H]2C[C@H]21)C(C)C` (stereo partly shown), for which the “Fold-Synergistic G-1a (L31V)” value in experiment [1] is listed as less than 10 Fold. Besides, the “Fold-Synergistic G-1a (Y93H)” value in experiment [2] is listed as greater than 100 Fold.

With `COC(=O)N[C@H](C(=O)N1[C@@H]2C[C@@H]2C[C@H]1C(=O)Nc1ccc(C23CC4C5CC6(c7ccc(NC(=O)[C@@H]8C[C@H]9C[C@H]9N8C(=O)[C@@H](NC(=O)OC)C(C)C)cc7)CC4C(C2)C(C6)C5C3)cc1)C(C)C`, in experiment [1], the “Fold-Synergistic G-1a (L31V)” value is reported as less than 10 Fold. Also, the “Fold-Synergistic G-1a (Y93H)” value in experiment [2] was less than 10 Fold.

On to `COC(=O)NC(C(=O)N1[C@@H]2C[C@@H]2C[C@H]1c1ncc(-c2cccc(-c3ccc4cc(-c5cnc([C@H]6C[C@@H]7C[C@@H]7N6C(=O)[C@@H](NC(=O)OC)C(C)C)[nH]5)ccc4c3)c2)[nH]1)C(C)C` (stereo partly shown), for which the “Fold-Synergistic G-1a (L31V)” value in experiment [1] was less than 10 Fold. Moreover, the “Fold-Synergistic G-1a (Y93H)” value in experiment [2] was greater than 10 Fold.

As for `COC(=O)N[C@H](C(=O)N1[C@@H]2C[C@@H]2C[C@H]1c1ncc(-c2ccc(C3C[C@H]3c3ccc(-c4cnc([C@@H]5C[C@H]6C[C@H]6N5C(=O)[C@@H](NC(=O)OC)C(C)C)[nH]4)cc3)cc2)[nH]1)C(C)C` (stereo partly shown), the “Fold-Synergistic G-1a (L31V)” value in experiment [1] is recorded as greater than 10 Fold. Besides, the “Fold-Synergistic G-1a (Y93H)” value in experiment [2] is listed as greater than 10 Fold.

Take `COC(=O)N[C@H](C(=O)N1CCC[C@H]1c1cn(-c2ccc(-c3ccc(-n4cnc([C@@H]5CCCN5C(=O)[C@@H](NC(=O)OC)C(C)C)c4)cc3)cc2)cn1)C(C)C`: the “Fold-Synergistic G-1a (L31V)” value in experiment [1] is given as greater than 10 Fold. Also, the “Fold-Synergistic G-1a (Y93H)” value in experiment [2] is greater than 10 Fold.

With `COC(=O)NC(C(=O)N1[C@@H](C)CC[C@H]1C1=NCC(c2ccc(-c3cnc(-c4cnc([C@@H]5CC[C@H](C)N5C(=O)[C@@H](NC(=O)OC)[C@H]5C[C@@H](C)O[C@@H](C)C5)[nH]4)c4cccn34)cc2)N1)[C@H]1C[C@@H](C)O[C@@H](C)C1` (stereo partly shown), in experiment [1], the “Fold-Synergistic G-1a (L31V)” value is given as greater than 10 Fold. Moreover, the “Fold-Synergistic G-1a (Y93H)” value in experiment [2] is given as greater than 100 Fold.
